Results as given in patent US20250129028A1, “COMPOUNDS AND METHODS FOR YAP/TEAD MODULATION AND INDICATIONS THEREFOR” (Opna Bio SA, priority 2022, published 2025).
Where two headings read alike, the source gives them in different places.

Test system: TEAD-dependent transcription
Experiment: TEAD-dependent transcription cell-based reporter assay (MSTO-211H+12XGTIIC luciferase)
Parameters: species or system human
Conditions: MSTO-211H+12XGTIIC cell line, luciferase signal normalized to cell viability, 24 hours compound incubation, read-out: MSTO-211H GMean IC50 (uM) Cell Assay Reporter Cell Variant: TEAD
Text: Determine Inhibitor Activity Against TEAD-Dependent Transcription in a Cell-Based Reporter Assay
The human mesothelioma cell line MSTO-211H was stably transfected with a pGL4.21 plasmid containing a synthetic promoter with 12 copies of the GTIIC TEAD response element that drives the expression of a luciferase reporter gene^1 using Lipofectamine transfection reagent (Thermo Fisher). Transfected cells were selected using puromycin and single cell clones expressing this construct (referred to as MSTO-211H+12XGTIIC) were generated by limiting dilution. MSTO-211H cells was characterized by genetic alterations in key components of the Hippo pathway^2, resulting in up-regulation of YAP/TEAD-mediated transcription. […] To evaluate TEAD inhibitors, the MSTO-211H+12XGTIIC cell line was seeded in a 96-well plate in 50 μL of culture media at 1×10^4 cells per well and incubated at 37° C. overnight. Serial dilutions of compounds (in total volume of 50 μL of culture media) were added to the cells and incubated at 37° C. for 24 hours. Each plate included cells treated with DMSO as high controls and cells treated with 20 μM of the reference compound K-975 (a known TEAD inhibitor)^3 as low controls. Cell viability was assayed by the addition of 25 μL of CellTiter-Fluor reagent (Promega) followed by a 30-minute incubation at 37° C. and quantification of the fluorescence signal (Ex400/Em505). Subsequently, luciferase expression was assayed by the addition of 25 μL of ONE-Glo reagent (Promega) followed by a 10-minute incubation at room temperature and quantification of the luminescence signal. The luminescence signal was normalized to the fluorescence signal to correct for any loss in cell viability over the 24-hour compound incubation period. The percentage of inhibition of normalized luminescence signal, indicative of compound-mediated inhibition of TEAD-dependent transcription, at individual compound concentrations relative to high and low controls was calculated. The data were analyzed by using nonlinear regression to generate IC50 values for individual compounds.

| Structure (SMILES) | IC50 (Homo sapiens) | IC50 |
| --- | --- | --- |
| CS(=O)(=O)CCC(=O)N1CCc2ccc(Oc3ccc(C(F)(F)F)cc3)c(-c3ccc(C4CC4)nc3)c2C1 [P-0207, 1-(8-(6-cyclopropylpyr-idin-3-yl)-7-(4-(trifluoro-methyl)phenoxy)-3,4-dihydroisoquinolin-2(1H)-yl)-3-(methylsul-fonyl)propan-1-one] | 0.001 to 10 µM | – |
| C=CC(=O)N1CCC(C2c3cc(Oc4ccc(C(F)(F)F)cc4)ccc3CCN2C(=O)CCS(C)(=O)=O)C1 (single isomer, unassigned) [P-0218, 1-(3-(2-(3-(methylsulfonyl)propanoyl)-7-(4-(trifluoromethyl)phenoxy)-1,2,3,4-tetrahydroisoquinolin-1-yl)pyrrolidin-1-yl)prop-2-en-1-one] | – | 0.001 to 10 µM |
| Nc1ncc(CC(=O)N2CCc3ccc(Oc4ccc(C(F)(F)F)cc4)cc3C2)s1 [P-0093, 2-(2-aminothiazol-5-yl)-1-(7-(4-(trifluoromethyl)-phenoxy)-3,4-dihydroiso-quinolin-2(1H)-yl)ethan-1-one] | 0.001 to 10 µM | – |
| CS(=N)(=O)CCC(=O)N1CCc2ccc(Oc3ccc(C(F)(F)F)cc3)cc2C1 (centres unmarked) [P-0055, imino(methyl)(3-oxo-3-(7-(4-(trifluoromethyl)-phenoxy)-3,4-dihydroiso-quinolin-2(1H)-yl)prop-yl)-16-sulfanone] | 0.001 to 10 µM | – |
| N#CC1CC(C(=O)N2CCc3ccc(Oc4ccc(C(F)(F)F)cc4)cc3C2)C1 (centres unmarked) [P-0042, 3-(7-(4-(trifluorometh-yl)phenoxy)-1,2,3,4-tetrahydroisoquinoline-2-carbonyl)cyclobutane-1-carbonitrile] | 0.001 to 10 µM | – |
| CS(=O)(=O)C12CC(C(=O)N3CCc4ccc(Oc5ccc(C(F)(F)F)cc5)cc4C3)(C1)C2 [P-0089, (3-(methylsulfonyl)-bicyclo[1.1.1]pentan-1-yl)(7-(4-(trifluoro-methyl)phenoxy)-3,4-dihydroisoquinolin-2(1H)-yl)methanone] | 0.001 to 10 µM | – |
| O=C(Cc1ccn[nH]1)N1CCc2ccc(Oc3ccc(C(F)(F)F)c(F)c3)cc2C1 [P-0149, 1-(7-(3-fluoro-4-(trifluoromethyl)phen-oxy)-3,4-dihydroiso-quinolin-2(1H)-yl)-2-(1H-pyrazol-5-yl)-ethan-1-one] | 0.001 to 10 µM | – |
| CS(=O)(=O)CCC(=O)N1CCc2c(cccc2-c2ccc(C(F)(F)F)cc2)C1 [P-0271, 3-(methylsulfonyl)-1-(5-(4-(trifluoromethyl)phen-yl)-3,4-dihydroisoquin-olin-2(1H)-yl)propan-1-one] | 0.001 to 10 µM | – |
| NC(=O)NCC(=O)N1CCc2ccc(Oc3ccc(Cl)cc3)cc2C1 [P-0104, 1-(2-(7-(4-chlorophen-oxy)-3,4-dihydroisoquin-olin-2(1H)-yl)-2-oxoeth-yl)urea] | 0.001 to 10 µM | – |
| O=C1CC(C(=O)N2CCc3ccc(Oc4ccc(C(F)(F)F)cc4)cc3C2)CCN1 (centres unmarked) [P-0130, 4-(7-(4-(trifluoromethyl)-phenoxy)-1,2,3,4-tetra-hydroisoquinoline-2-carbonyl)piperidin-2-one] | 0.001 to 10 µM | – |
| NS(=O)(=O)c1ccnc(N2CCc3ccc(Oc4ccc(C(F)(F)F)cc4)cc3C2)c1 [P-0230, 2-(7-(4-(trifluorometh-yl)phenoxy)-3,4-dihydro-isoquinolin-2(1H)-yl)-pyridine-4-sulfonamide] | 0.001 to 10 µM | – |
| O=C(c1cocn1)N1CCc2ccc(Oc3ccc(C(F)(F)F)cc3)cc2C1 [P-0108, oxazol-4-yl(7-(4-(trifluoromethyl)phen-oxy)-3,4-dihydroisoquin-olin-2(1H)-yl)methanone] | 0.001 to 10 µM | – |
| CS(=O)(=O)CCC(=O)N1CCc2ccc(-c3ccc(OC(F)(F)F)cc3)cc2C1 [P-0277, 3-(methylsulfonyl)-1-(7-(4-(trifluoromethoxy)phenyl)-3,4-dihydroisoquinolin-2(1H)-yl)propan-1-one] | 10 to 100 µM | – |
| NC(=O)CN1CCc2ccc(Oc3ccc(C(F)(F)F)cc3)cc2C1 [P-0026, 2-(7-(4-(trifluorometh-yl)phenoxy)-3,4-dihydro-isoquinolin-2(1H)-yl)-acetamide] | 0.001 to 10 µM | – |
| N=C(N)NCCC(=O)N1CCc2ccc(Oc3ccc(C(F)(F)F)cc3)cc2C1 [P-0106, 1-(3-oxo-3-(7-(4-(trifluoromethyl)phen-oxy)-3,4-dihydroisoquin-olin-2(1H)-yl)propyl)-guanidine] | 0.001 to 10 µM | – |
| NS(=O)(=O)CCC(=O)N1CCc2ccc(Oc3ccc(C(F)(F)F)c(F)c3)cc2C1 [P-0123, 3-(7-(3-fluoro-4-(trifluoromethyl)phen-oxy)-3,4-dihydroisoquin-olin-2(1H)-yl)-3-oxopro-pane-1-sulfonamide] | 0.001 to 10 µM | – |

| Structure (SMILES) | IC50 (Homo sapiens) | IC50 |
| --- | --- | --- |
| N#CCCC(=O)N1CCc2c(cccc2Oc2ccc(C(F)(F)F)cc2)C1 [P-0239, 4-oxo-4-(5-(4-(trifluoromethyl)phenoxy)-3,4-dihydroisoquinolin-2(1H)-yl)butanenitrile] | 0.001 to 10 µM | – |
| O=S(=O)(C1CC1)N1CCc2ccc(Oc3ccc(C(F)(F)F)cc3)cc2C1 [P-0006, 2-(cyclopropylsulfonyl)-7-(4-(trifluoromethyl)-phenoxy)-1,2,3,4-tetra-hydroisoquinoline] | 0.001 to 10 µM | – |
| N=C(N)NCC(=O)N1CCc2ccc(Oc3ccc(C(F)(F)F)cc3)cc2C1 [P-0098, 1-(2-oxo-2-(7-(4-(trifluoromethyl)phen-oxy)-3,4-dihydroiso-quinolin-2(1H)-yl)-ethyl)guanidine] | 0.001 to 10 µM | – |
| CS(=O)(=O)CCC(=O)N1CCc2ccc(Oc3ccc(C(F)(F)F)c(F)c3)cc2C1 [P-0085, 1-(7-(3-fluoro-4-(trifluoromethyl)phen-oxy)-3,4-dihydroisoquin-olin-2(1H)-yl)-3-(methyl-sulfonyl)propan-1-one] | 0.001 to 10 µM | – |
| CC(=O)N1CCC(c2c(Oc3ccc(C(F)(F)F)cc3)ccc3c2CN(C(=O)CCS(C)(=O)=O)CC3)C1 (centres unmarked) [P-0215, 1-(8-(1-acetylpyrrolidin-3-yl)-7-(4-(trifluorometh-yl)phenoxy)-3,4-dihydro-isoquinolin-2(1H)-yl)-3-(methylsulfonyl)pro-pan-1-one] | 10 to 100 µM | – |
| CN(C)CCCC(=O)N1CCc2c(cccc2Oc2ccc(C(F)(F)F)cc2)C1 [P-0263, 4-(dimethylamino)-1-(5-(4-(trifluoromethyl)phen-oxy)-3,4-dihydroisoquin-olin-2(1H)-yl)butan-1-one] | 0.001 to 10 µM | – |
| O=C(Cc1cnc[nH]1)N1CCc2ccc(Oc3ccc(C(F)(F)F)c(F)c3)cc2C1 [P-0150, 1-(7-(3-fluoro-4-(trifluoromethyl)phen-oxy)-3,4-dihydroisoquin-olin-2(1H)-yl)-2-(1H-imidazol-5-yl)ethan-1-one] | 0.001 to 10 µM | – |
| O=C(CCc1cn[nH]c1)N1CCc2c(cccc2Oc2ccc(C(F)(F)F)cc2)C1 [P-0248, 3-(1H-pyrazol-4-yl)-1-(5-(4-(trifluoromethyl)-phenoxy)-3,4-dihydro-isoquinolin-2(1H)-yl)pro-pan-1-one] | 0.001 to 10 µM | – |
| CNC(=O)N1CCc2ccc(Oc3ccc(C(F)(F)F)cc3)cc2C1 [P-0016, N-methyl-7-(4-(trifluoro-methyl)phenoxy)-3,4-dihydroisoquinoline-2(1H)-carboxamide] | 0.001 to 10 µM | – |
| NS(=O)(=O)c1ccc(C(=O)N2CCc3ccc(Oc4ccc(C(F)(F)F)cc4)cc3C2)cc1 [P-0126, 4-(7-(4-(trifluorometh-yl)phenoxy)-1,2,3,4-tetrahydroisoquinoline-2-carbonyl)benzene-sulfonamide] | 0.001 to 10 µM | – |
| CNS(=O)(=O)NCC(=O)N1CCc2ccc(Oc3ccc(C(F)(F)F)cc3)cc2C1 [P-0128, N-methyl-N′-(2-(7-(4-(trifluoromethyl)phen-oxy)-3,4-dihydroisoquin-olin-2(1H)-yl)-2-oxoeth-yl)sulfamide] | 0.001 to 10 µM | – |
| NCC(=O)N1CCc2ccc(Oc3ccc(C(F)(F)F)c(F)c3)cc2C1 [P-0113, 2-amino-1-(7-(3-fluoro-4-(trifluoromethyl)phen-oxy)-3,4-dihydroisoquin-olin-2(1H)-yl)ethan-1-one] | 0.001 to 10 µM | – |
| CN(C)CCC(=O)N1CCc2ccc(Oc3ccc(C(F)(F)F)c(F)c3)cc2C1 [P-0094, 3-(dimethylamino)-1-(7-(3-fluoro-4-(trifluoro-methyl)phenoxy)-3,4-dihydroisoquinolin-2(1H)-yl)propan-1-one] | 0.001 to 10 µM | – |
| CC(C)S(=O)(=O)N1CCc2ccc(Oc3ccc(C(F)(F)F)cc3)cc2C1 [P-0021, 2-(isopropylsulfonyl)-7-(4-(trifluoromethyl)-phenoxy)-1,2,3,4-tetra-hydroisoquinoline] | 0.001 to 10 µM | – |
| CCS(=O)(=O)N1CCc2ccc(Oc3ccc(C(F)(F)F)cc3)cc2C1 [P-0002, 2-(ethylsulfonyl)-7-(4-(trifluoromethyl)phen-oxy)-1,2,3,4-tetrahydro-isoquinoline] | 0.001 to 10 µM | – |
| O=C(Cc1c[nH]c(=O)[nH]c1=O)N1CCc2ccc(Oc3ccc(C(F)(F)F)c(F)c3)cc2C1 [P-0139, 5-(2-(7-(3-fluoro-4-(trifluoromethyl)phen-oxy)-3,4-dihydroisoquin-olin-2(1H)-yl)-2-oxoeth-yl)pyrimidine-2,4(1H, 3H)-dione] | 0.001 to 10 µM | – |
